How the values were obtained:
MHV68 = MHV68 viral replication assay in wild-type and IFNAR−/− BMMs (M9 western blot); format: cell-based, Murine gammaherpesvirus 68; conditions: MOI 5, 48 h, co-treatment
Description: (B) For viral replication assays, BMMs were simultaneously stimulated with PAMPs (10, 1, or 0.1 ng/ml lipid A, or 1, 0.1, or 0.01 μg/ml poly(I:C)) and infected with MHV68 using a multiplicity of infection of five. Cell lysates were harvested at 48 h postinfection and subjected to Western blotting analysis using an Ab specific to the MHV68 protein M9. Actin levels were also assayed to ensure equal loading. The data represent two independent experiments.
A129 (IFNAR-1^−/−) (Muller, U., U. Steinhoff, L. F. L. Reis, S. Hemmi, J. Pavlovic, R. M. Zinkernagel, and M. Aguet. 1994. Functional role of type I and type II interferons in antiviral defense. Science 264:1918) and B6129SF2/J wild type control mice were obtained from B&K Universal Ltd. and Jackson Laboratories, respectively. C57/B6 mice were used for all experiments not involving the A129 mice (Jackson Laboratories). Specific TLR activation was achieved using F-583 (Rd mutant) E. coli lipid A for TLR4 (Sigma), CpG oligonucleotides for TLR9 (Invitrogen) and poly I:C for TLR3 (Pharmacia). […]
Using the MHV68 protein M9 as a readout for viral load, we show in FIG. 13B that the antiviral activity of macrophage cells infected with MHV68 was abolished in the absence of IFNAR despite co-treatment with either lipid A or poly I:C. […]

BMMs = experiment: Quantitative real-time PCR gene expression in BMMs, wild-type and IFNAR deficient (Example 2); format: cell-based, murine; conditions: for TLR3 mRNA production / TLR4 mRNA production: primary macrophages, by four hours; for TLR3 mRNA production / TLR4 mRNA production / IFN-β and IP10 induction at one hour: poly I:C 1 μg/ml, lipid A 1 ng/ml; for IFI-204 expression at one hour / IFN-β and IP10 induction at one hour: wild type and IFNAR knockout macrophages; for ICAM1 mRNA (induction control): wild-type and knockout cells, one and four hours
Description: Murine BMMs were stimulated with poly(I:C) (10 μg/ml) or lipid A (1 ng/ml) for the indicated times. Total RiNA was isolated and converted to cDNA for quantitative real-time PCR analysis using primers specific for IFN-β, IFI-204, IP10, IκBα, or L32. Experiments were repeated three times, and the data are presented in relative expression units on a log scale, as described in Example 2, infra.
Primary macrophage cells derived from bone marrow cells were stimulated with poly I:C (1 μg/ml) or lipid A (1 ng/ml) for the indicated times, as described in Example 2, infra.
(B) TLR3 and TLR4 mRNA levels were also assessed in cells deficient in IFNAR, and cells stimulated with rIFN-β (10, 100, and 1000 U). Experiments were repeated at least two separate times, and data are presented in relative expression units. L32 was used to normalize all samples.
Both wild-type cells and cells deficient in IFNAR were stimulated with poly I:C (1 μg/ml) or lipid A (1 ng/ml) for either 1 or 4 h. IFN-β, IP10, IFI-204, ICAM1, and L32 mRNA levels were assessed. Data are representative of three independent experiments and presented in relative expression units, as described in Example 2, infra.
Murine bone marrow-derived macrophages (BMMs) were differentiated from marrow as previously described (Doyle, S. E., S. A. Vaidya, R. O'Connell, H. Dadgostar, P. W. Dempsey, T.-T. Wu, G. Rao, R. Sun, M. E. Haberland, R. L. Modlin, and G. Cheng. 2002. IRF3 mediates a TLR3/TLR4-specific antiviral gene program. Immunity 17:251). A129 (IFNAR-1^−/−) (Muller, U., U. Steinhoff, L. F. L. Reis, S. Hemmi, J. Pavlovic, R. M. Zinkernagel, and M. Aguet. 1994. Functional role of type I and type II interferons in antiviral defense. Science 264:1918) and B6129SF2/J wild type control mice were obtained from B&K Universal Ltd. and Jackson Laboratories, respectively. C57/B6 mice were used for all experiments not involving the A129 mice (Jackson Laboratories). Specific TLR activation was achieved using F-583 (Rd mutant) E. coli lipid A for TLR4 (Sigma), CpG oligonucleotides for TLR9 (Invitrogen) and poly I:C for TLR3 (Pharmacia). For experiments employing the TIRAP/MAL inhibitory peptide (CN Biosciences), cells were pretreated for 1 hour with 20 μM peptide or DMSO alone. Cells were then stimulated with PAMPs in the presence of the inhibitory peptide. For experiments using murine rIFN-β (R&D Systems), wild-type macrophage cells were stimulated with 10, 100, or 1000 units. Viral infection and harvest was performed using MHV68 at an M.O.I. of 5 as previously described (Doyle, S. E., S. A. Vaidya, R. O'Connell, H. Dadgostar, P. W. Dempsey, T.-T. Wu, G. Rao, R. Sun, M. E. Haberland, R. L. Modlin, and G. Cheng. 2002. IRF3 mediates a TLR3/TLR4-specific antiviral gene program. Immunity 17:251).
RNA was isolated by standard guanidium isothiocyanate methods. cDNA template for quantitative realtime PCR analysis was then synthesized and PCR was performed using the iCycler thermocycler (Bio-Rad) as previously described (Doyle, S. E., S. A. Vaidya, R. O'Connell, H. Dadgostar, P. W. Dempsey, T.-T. Wu, G. Rao, R. Sun, M. E. Haberland, R. L. Modlin, and G. Cheng. 2002. IRF3 mediates a TLR3/TLR4-specific antiviral gene program. Immunity 17:251). IFN-βIP10, IκBα and IFI-204 primers were the same as those previously described (Doyle, S. E., S. A. Vaidya, R. O'Connell, H. Dadgostar, P. W. Dempsey, T.-T. Wu, G. Rao, R. Sun, M. E. Haberland, R. L. Modlin, and G. Cheng. 2002. IRF3 mediates a TLR3/TLR4-specific antiviral gene program. Immunity 17:251). For other genes, the following primers were used: […]

Row | Substance | antiviral activity against MHV68 in the absence of IFNAR (MHV68) | expression of MyD88 and TIRAP/MAL (BMMs) | induction of IFN-β, IP10 and IFI-204 relative to TLR4 agonist lipid A (BMMs; BMMs, up to twelve hours, poly I:C 10 μg/ml vs lipid A 1 ng/ml) | IFI-204 expression by four hours, IFNAR knockout cells (BMMs) | IP10 expression by four hours, IFNAR knockout cells (BMMs) | TLR3 mRNA production (BMMs) | TLR4 mRNA production (BMMs) | IFI-204 expression by four hours, wild type cells (BMMs) | IP10 expression by four hours, wild type cells (BMMs) | IFI-204 expression at one hour (BMMs) | IFN-β and IP10 induction at one hour (BMMs) | ICAM1 mRNA (induction control) (BMMs)
1 | poly I:C | abolished | can induce the expression | induced to higher levels and for extended periods of time | not detectable | remained relatively unchanged | caused the induction of TLR3 | but not TLR4 | induced to high levels | significantly enhanced | remained at basal levels | induced by one hour | elevated by one hour and remained high by four hours
2 | lipid A | abolished | can induce the expression |  | not detectable | remained relatively unchanged | caused the induction of TLR3 | but not TLR4 | induced to high levels | significantly enhanced | remained at basal levels | induced by one hour | elevated by one hour and remained high by four hours
